Structures are written as SMILES.

Holding throughout (experiment): microbe, parasite or virus in culture
One assay concerns A(H1N1)pdm09 viruses. The format is cell-based, influenza A(H1N1)pdm09 virus. Conditions: Influenza A virus, H1N1, read-out: median IC50.
A further assay concerns A(H3N2) viruses. The format is cell-based. Conditions: Influenza A virus, H3N2, read-out: median IC50.
Assay [1] concerns B/Victoria-lineage viruses. The format is cell-based. Conditions: Influenza B virus, read-out: median IC50.
Assay [2] has as its system B/Yamagata-lineage viruses. Format: cell-based. Particulars: Influenza B virus, read-out: median IC50.

On to `O=C1c2c(O)c(=O)ccn2N([C@@H]2c3ccccc3SCc3c2ccc(F)c3F)[C@@H]2COCCN12` [Baloxavir, baloxavir acid], for which the IC50 with A(H1N1)pdm09 viruses is 0.28 nM; with A(H3N2) viruses, 0.16 nM; in assay [1], 3.42 nM; in assay [2], 2.43 nM.

Source of the values: article PMC6291754 (Frontiers in Microbiology, 2018).
